Test results reported in patent US20050090498A1, “3-Quinolin-2(1h)-ylideneindolin-2-one derivative” (priority 2001, published 2005).

Experiments:
[1] = system: Human umbilical vein endothelial cells (HUVEC), VEGF-stimulated; assay: Test on the inhibition of VEGF-stimulated HUVEC growth ([3H]thymidine incorporation); format: cell-based; settings: human recombinant VEGF 10 ng/ml
Protocol: Test method: (Cell culture) Human umbilical vein endothelial cells (HUVEC) were cultured using EGM-2 complete medium (Clonetics) which had been supplemented with additives (2% FBS, 0.4% FGF (fibroblast growth factor), 0.1% VEGF, 0.1% IGF-I (insulin like growth factor-I), 0.1% EGF (epidermal growth factor), 0.1% ascorbic acid, 0.1% GA-1000, 0.1% heparin and 0.04% hydrocortisone).
(Evaluation of compounds) HUVEC (10,000 cells/well) were inoculated into EGM-2 complete medium in a gelatin-coated 96 well plate (mfd. by IWAKI) and cultured overnight. After washing with a physiological phosphate buffer, the medium was exchanged with a low serum medium (Medium 199/0.1% FBS) and the culturing was continued for 24 hours. Each of the compounds to be evaluated was prepared as a 10 mM DMSO solution and diluted with the low serum medium. This was added to each well to a final concentration of from 0.001 to 10 μM. After 2 hours of the compound treatment, human recombinant VEGF (R & D Systems) was added to a final concentration of 10 ng/ml. After 18 hours, [^3H]thymidine (Amersham Pharmacia) was added in 5 μCi/well portions. After 4 hours, the reaction was terminated by adding 0.2% SDS in 50 μl/well portions, and the product was recovered on GF/C Unifilter (Packard). After adding 25 μl of Microscinti 20 (Packard), the radioactivity incorporated into the DNA trapped on the filter was measured using TopCount (Packard). The IC50 of the inhibitory activity of each compound was calculated as the 50% inhibition concentration (IC50 value) of each compound to be tested, by defining the incorporated amount of [^3H]thymidine at the time of VEGF addition as 100%, and its incorporated amount at the time of no addition of VEGF as 0%.

[2] = system: Human umbilical vein endothelial cells (HUVEC), VEGF-stimulated; assay: as above; format: cell-based; settings: human recombinant VEGF 10 ng/ml; remark: listed apart in the source

O=C1Nc2cc(F)ccc2C1=C1C=Cc2ccccc2N1 [Example 209]
IC50 [1]: 18 nM

O=C1Nc2ccccc2C1=C1C=Cc2cc(OCCN3CCN(CCO)CC3)ccc2N1 [Example 85]
IC50 [1]: 110 nM

O=C(Nc1cccnc1)Nc1ccc2c(c1)C=CC(=C1C(=O)Nc3ccccc31)N2 [Example 16, 1-[2-(2-oxoindolin-3-ylidene)-1,2-dihydroquinolin-6-yl]-3-(pyridin-3-yl)urea]
IC50 [2]: 110 nM

O=C1Nc2cc(C(F)(F)F)ccc2C1=C1C=Cc2ccccc2N1 [Example 203]
IC50 [1]: 4.8 nM

O=C1Nc2ccccc2C1=C1C=Cc2cc(Br)ccc2N1 [Example 56]
IC50 [1]: 110 nM

O=Cc1ccc2c(c1)NC(=O)C2=C1C=Cc2ccccc2N1 [Example 193]
IC50 [1]: 870 nM

N#Cc1ccc2c(c1)NC(=O)C2=C1C=Cc2ccccc2N1 [Example 191]
IC50 [1]: 70 nM

O=C1Nc2ccccc2C1=C1C=Cc2cc(OCCN3CCCCC3=O)ccc2N1 [Example 59]
IC50 [1]: 87 nM

CN1CCCN(CCOc2ccc3c(c2)C=CC(=C2C(=O)Nc4ccccc42)N3)CC1 [Example 83]
IC50 [1]: 110 nM

O=C1Nc2cc(F)c(F)cc2C1=C1C=Cc2cc(OCCN3CCOCC3)ccc2N1 [Example 341]
IC50 [1]: 20 nM

CN1CCN(CCCc2ccc3c(c2)C=CC(=C2C(=O)Nc4ccccc42)N3)CC1 [Example 98]
IC50 [1]: 150 nM

O=C(O)CCc1ccc2c(c1)C=CC(=C1C(=O)Nc3ccccc31)N2 [Example 66]
IC50 [1]: 350 nM

O=C1Nc2cc(C(F)(F)F)ccc2C1=C1C=Cc2cc(OCCN3CCOCC3)ccc2N1 [Example 296]
IC50 [1]: 47 nM

O=C1Nc2ccc(Cl)cc2C1=C1C=Cc2cc(OCCN3CCOCC3)ccc2N1 [Example 293]
IC50 [1]: 48 nM

CCOC(=O)c1ccc2c(c1)NC(=O)C2=C1C=Cc2ccccc2N1 [Example 17, ethyl 3-[quinolin-2(1H)-ylidene]indolin-2-one-carboxylate]
IC50 [1]: 12 nM

O=C(CN1CCOCC1)Nc1ccc2c(c1)C=CC(=C1C(=O)Nc3ccccc31)N2 [Example 9, 2-morpholin-4-yl-N-[2-(2-oxoindolin-3-ylidene)-1,2-dihydroquinolin-6-yl]acetamide]
IC50 [2]: 200 nM

CCOC(=O)c1cc2c(cc1F)C(=C1C=Cc3ccccc3N1)C(=O)N2 [Example 204]
IC50 [1]: 22 nM

O=C1Nc2ccc(Br)cc2C1=C1C=Cc2ccccc2N1 [Example 285]
IC50 [1]: 70 nM

O=C1Nc2ccccc2C1=C1C=C(CO)c2ccccc2N1 [Example 187]
IC50 [1]: 140 nM

CCOC(=O)c1cc2c(cc1C)C(=C1C=Cc3cc(OCCN4CCOCC4)ccc3N1)C(=O)N2 [Example 301]
IC50 [1]: 7.6 nM

O=C1Nc2cc(Cl)ccc2C1=C1C=Cc2cc(OCCN3CCOCC3)ccc2N1 [Example 312]
IC50 [1]: 48 nM

O=C1Nc2ccccc2C1=C1C=Cc2cc(OCCCN3CCOCC3)ccc2N1 [Example 42]
IC50 [1]: 110 nM

O=C(NCCCN1CCOCC1)C1=CC(=C2C(=O)Nc3ccccc32)Nc2ccccc21 [Example 163]
IC50 [1]: 43 nM

O=C1Nc2ccccc2C1=C1C=Cc2cc(OCCN3CCN(c4ncccn4)CC3)ccc2N1 [Example 82]
IC50 [1]: 42 nM

CC(=O)c1ccc2c(c1)NC(=O)C2=C1C=Cc2ccccc2N1 [Example 21, 6-acetyl-3-quinolin-2(1H)-ylideneindolin-2-one]
IC50 [2]: 220 nM

COCCNCc1ccc2c(c1)C=CC(=C1C(=O)Nc3ccccc31)N2 [Example 112]
IC50 [1]: 100 nM

CN1CCC(N(C)CCOc2ccc3c(c2)C=CC(=C2C(=O)Nc4ccccc42)N3)CC1 [Example 87]
IC50 [1]: 100 nM

O=C1Nc2ccccc2C1=C1C=Cc2cc(OCCCCN3CCOCC3)ccc2N1 [Example 47]
IC50 [1]: 170 nM

CCOC(=O)c1cc2c(cc1F)C(=C1C=Cc3cc(OCCN4CCOCC4)ccc3N1)C(=O)N2 [Example 299]
IC50 [1]: 27 nM

CNC(=O)c1ccc2c(c1)C=CC(=C1C(=O)Nc3ccccc31)N2 [Example 149]
IC50 [1]: 73 nM

O=C1Nc2ccccc2C1=C1C=Cc2cc(C(=O)NCCN3CCOCC3)ccc2N1 [Example 145]
IC50 [1]: 31 nM

CCOC(=O)c1ccc2c(c1)NC(=O)C2=C1C=Cc2cc(OCCN3CCOCC3)ccc2N1 [Example 294]
IC50 [1]: 12 nM

Nc1ccc2c(c1)C=CC(=C1C(=O)Nc3ccccc31)N2 [Example 10, 3-[6-aminoquinolin-2(1H)-ylidene]indolin-2-one]
IC50 [2]: 990 nM

Cc1ccc2c(c1)C(=C1C=Cc3ccccc3N1)C(=O)N2 [Example 201]
IC50 [1]: 290 nM

O=C1Nc2ccccc2C1=C1C=Cc2c(cccc2OCCN2CCOCC2)N1 [Example 105]
IC50 [1]: 220 nM
